Experimental data reported in patent US6369109B1, “Betulinic acid and derivatives thereof useful for the treatment of neuroectodermal tumor” (Deutsches Krebsforschungszentrum Stiftung des Offentlichen …, priority 1998, dated 2002).

Experiments:
[1] = tested on: mitochondria isolated from SHEP cells; experiment: Mitochondrial membrane potential of isolated mitochondria (DiOC6(3)); format: biochemical, human; conditions: mitochondria from wild type or vector-only SHEP cells; 10 μg/ml betulinic acid, 30 min; FIG. 7, 12D
Procedure: For isolation of mitochondria, cells (3×10^5 per sample) were washed twice with ice-cold PBS and resuspended with five volumes of buffer A (50 mM Tris, 1 mM EGTA, 5 mM 2-mercaproethanol, 0.2% BSA, 10 mM KH2PO4, pH 7.6, 0.4 M sucrose) and allowed to swell on ice for 20 min. Cells were homogenized with 30 strokes of a Teflon homogenizer and centrifuged at 10000 g for 10 min at 4° C. The resulting pellets were resuspended in buffer B (10 mM KH2PO4, pH 7.2, […] mannitol, 0.1% BSA). Mitochondria were separated by sucrose gradient (lower layer: 1.6 M sucrose, 10 mM KH2PO4, pH 7.5, 0.1% BSA; upper layer: 1.2 M sucrose, 10 mM KH2PO4, pH 7.5, 0.1% BSA). Interphases containing mitochondria were washed with buffer B at 18000 g for 10 min at 4° C. and the resulting mitochondrial pellets were resuspended in buffer B. For preparation of cytosolic extracts, cells (1×10^8 per sample) were washed twice with ice-cold PBS, resuspended with one volume of buffer A and allowed to swell on ice for 20 min. Cells were homogenized with 30 strokes of a Dounce homogenizer and centrifuged at 15000×g for 15 min ax 4° C. The protein concentration of mitochondria or cytosolic extracts was determined by Bradford method (Bio-Rad). For isolation of nuclei, cells were washed twice in ice-cold PBS, resuspended in 10 volumes of buffer C (10 mM PIPES, pH 7.4, 10 mM KCl, 2 mM MgCl2, 1 mM DDT, 1 mM PMSF, 10 μM cytochalasin B), allowed to swell on ice for 20 min and homogenized using a Teflon homogenizer. Homogenates were layered over 30% sucrose in buffer C and centrifuged at 800 g for 10 min. The resulting nuclear pellets were resuspended in buffer C and washed three times. Nuclei were scored at −80° C. in aliquots of 10^8 nuclei/ml until required. AIF-containing mitochondrial supernatant was prepared as described in Susin et aL, 1997, J. Exp. Med. 186, 5-37 and Susin et al., 1996, J. Exp. Med. 184, 1331-41.
Mitochondria (5×10^5/ml) were treated with 10 μg/ml betulinic acid for 30 min, incubated with 3,3′-dihexyloxacarbocyanide iodide (DiOC6(3), 40 nM, Molecular Probes, Inc., Eugene, Oreg.) for 15 min at 37° C. and analyzed on a flow cytometer (FACS Vantage, Becton Dickinson). As a control, cells were treated with the uncoupling agent carbonyl cyanide m-chlorophenylhydrazone (mCICCP, 200 μM, Sigma).

[2] = tested on: isolated nuclei with mitochondria from SHEP cells; experiment: Cell-free system of apoptosis: nuclear fragmentation of isolated nuclei; format: biochemical, human; conditions: for nuclear DNA fragmentation, mitochondria plus nuclei plus drug: Neo control mitochondria, 0.1-10 μg/ml betulinic acid or 5 mM atractyloside, 6 h, FIG. 8A, 8B
Procedure: (§1) For determination of nuclear fragmentation, nuclei (10^3/μl) were incubated with mitochondria (1 μg/μl) in buffer D (10 mM HEPES, pH 7.4, 50 mM NaCl, 2 mM MgCl2, 5 mM EGTA, 1 mM DDT, 2 mM ATP, 10 mM phosphocreatine, 50 μg/ml creatine kinase, 10 μM cytochalasin B) for 2 h at 37° C. Nuclei were stained with propidium iodide ([…]) and analyzed by flow cytometry. For determination of caspase activation, cytosolic extracts (2 μg/μl) were incubated with mitochondria (1 μg/μl), cytochrome c (0.1-100 μM) or AIF-containing mitochondrial supernatant (0.5 μg/μl) in buffer D for 2 h at 37° C. Partially purified AIF (cytochrome c-free) was prepared as previously described (0.5 mg/ml, Susin et al., 1997, J. Exp. Med. 186, 5-37; Susin et al., 1996, J. Exp. Med. 184, 1331-41). Proteins were separated by 15% SDS-PAGE and Western blot analysis was performed as described above.
Mitochondria isolated from SHEP cells, transfected with bcl-2 or bcl-XL or a neomycin resistance vector only, were incubated for 6 h with nuclei and 0.1-10 μg/ml betulinic acid (FIG. 8A) or 5 mM atractyloside (FIG. 8B) in the presence or absence of 50 μM bongkrekic acid or 60 μMZ-VAD-fnk. Nuclei incubated with either mitochondria from vector only cells or with betulinic acid were used as control. Nuclear apoptosis was determined by FACS analysis of propidium iodide stained DNA content.
SHEP cells transfected with bcl-2 or bcl-XL or a neomycin resistance vector only were treated with 10 μg/ml betulinic acid or 5 mM atractyloside for 6-24 h (FIG. 8C). Mitochondria were isolated and incubated with nuclei in the presence or absence of 50 μM bongkrekic acid or 60 μMZ-VAD-fmk. Nuclei incubated with either mitochondria front vector only cells or with betulinic acid were used as control. Nuclear apoptosis was determined by FACS analysis of propidium iodide stained DNA content.
Mitochondria isolated from SHEP cells transfected with bcl-2, Bcl-XL or a neomycin resistance vector only were treated with 10 μg/ml betulinic acid or 5 mM atractyloside for 0.5 h in the presence or absence of 50 μM bongkrekic acid or 60 μM zVAD-fmk. Mitochondrial supernatants obtained by high speed centrifugation were incubated with nuclei for 2 h at 37° C. Nuclei incubated with supernatants of untreated mitochondria were used as control.. Nuclear apoptosis was determined by FACS analysis of propidium iodide stained DNA content.
as §1, with “cytometry (Susin et al., 1997 Exp. Cell Res. 236:397-403).” for “cytometry.”, “(10” for “(0.1-100”, “C.” for “C. Partially purified AIF (cytochrome c-free) was prepared as previously described (0.5 mg/ml, Susin et al., 1997, J. Exp. Med. 186, 5-37; Susin et al., 1996, J. Exp. Med. 184, 1331-41).”, “before.” for “above.”
(§2) SHEP cells transfected with Bcl-2 or BCl-XL or a neomycin resistance vector only (Neo) were treated with 0.5 μg/ml Doxorubicin or 10 μg/ml Betulinic acid for 48 h (A) or 24 h (B and C). Cells transfected with a neomycin resistance vector only (Neo) were treated in the presence or absence of 50 μm BA or 60 μm zVAD-fmk. Nuclear apoptosis was determined by FACS analysis or propidium iodide-stained DNA content in intact cells (A) or in a CFS incubating isolated nuclei with mitochondria from cells treated with Doxo or betulinic acid (C). ΔΨm was determined by staining cells with the potential-sensitive fluorochrome DiOC6(3) (B).

[3] = tested on: SH-EP neuroblastoma cells; experiment: Specific apoptosis, FACS analysis of propidium iodide-stained nuclei; format: cell-based, human; conditions: 10 μg/ml antibody fragments 1 h before drug; 10 μg/ml betulinic acid, 50 μg/ml VP-16, 10 μg/ml cisplatinum, 0.5 μg/ml doxorubicin, 72 h; FIG. 3B
Procedure: Quantification of DNA fragmentation was performed by FACS analysis of propidium iodide stained nuclei as described in Nicoletti et al, 1991, J. Immunol. Methods. 139: 271-279. Cells were analyzed for DNA content by flow. cytometry (FACScan, Becton Dickinson, Heidelberg, Germany) using CELLQuest software. Early apoptotic changes were identified by staining with biotinylated annexin V (Bender Med Systems, Vienna, Austria) following the manufacturer's instructions. Annexin V binds to exposed phosphatidylserine on the surface of apoptotic cells. Koopman et al, 1994, Blood. 84:1415-1420. Cells were analyzed by flow cytometry (FAC-Scan. Becton Dickinson) using CELLQuest software.
Cells were treated with 10 μg/ml betulinic acid for 72 h. Apoptosis was assessed by FACS analysis of propidium iodide-stained nuclei. Percentage of specific apoptosis was calculated as follows: experimental apoptosis (%) −spontaneous apoptosis in medium (%)/[100%−spontaneous apoptosis in medium (%)]×100%. […]
Cells were incubated for indicated times with doxorubicin, betulinic acid or anti-APO-1 and harvested by trypsinization using 0.05% trypsin and 0.02% EDTA without Ca^2+and Mg^2+(Life Technologies, Inc.). Quantification of DNA fragmentation was performed by FACS analysis of propidium iodide stained nuclei as previously described in Nicoletti et al., J. ImmunoL Methods 139:271-279, using CELLQuest software (Becton Dickinson, Heidelberg, Germany).
as §2

[4] = tested on: caspase-3, caspase-8 and PARP in cytosolic extracts of SHEP cells; experiment: Cell-free system of apoptosis: cleavage of caspases in cytosolic extracts by mitochondria; format: biochemical, human
Procedure: as §1, with “above. To confirm equal loading of mitochondrial protein, all Western blots were also developed with an antibody directed against a 60 kDa mitochondrial antigen (data not shown).” for “above.”
SHEP cells transfected with bcl-2 or Bcl-XL or a neomycin resistance vector only were treated with 10 μg/ml betulinic acid for 16 h. Mitochondria were isolated and incubated with cytosolic extracts for 6 h in the presence or absence of 60 μM zVAD-fmk (left panel, cells). Alternatively, mitochondria isolated from untreated cells were incubated with 10 μg/ml betulinic acid or 5 mM atractyloside together with cytosolic extracts for 6 h in the presence or absence of 60 μMZ-VAD-fmk (right panel, mitos, Atra). Cytosolic extracts incubated with mitochondria isolated from untreated cells or with untreated mitochondria were used as control. 40 μg protein per lane isolated front cell lysates were separated by 15% SDS-PAGE. Immunodetection of caspases-3, -8 and PARP protein was performed by mouse anti-caspase-3 mAb, mouse anti-caspase-8 mAb, rabbit anti-PARP polyclonal antibody and ECL.
SHEP cells treated with 10 μg/ml betulinic acid for indicated times. Mitochondria were isolated and incubated with cytosolic extracts for 6 h. Western blot analysis was performed as described above.
Mitochondria isolated from SHEP cells transfected with bcl-2 or Bcl-XL or a neomycrn resistance vector only were treated with 10 μg/ml betulinic acid or 5 mM atractyloside for 0.5 h in the presence or absence of 50 μM bongkrekic acid or 60 μM zVAD-fmk. Mitochondrial supernatants obtained by high speed centrifugation were incubated with cytosolic extracts for 6 h at 37° C. Cytosolic extracts incubated with supernatants of untreated mitochondria were used as control. Western blot analysis was performed as described for FIG. 9A.
as §1, with “cytometry (Susin et al., 1997 Exp. Cell Res. 236:397-403).” for “cytometry.”, “(10” for “(0.1-100”, “C.” for “C. Partially purified AIF (cytochrome c-free) was prepared as previously described (0.5 mg/ml, Susin et al., 1997, J. Exp. Med. 186, 5-37; Susin et al., 1996, J. Exp. Med. 184, 1331-41).”, “before.” for “above.”
SHEP cells transfected with Bcl-2 or Bcl-XL or a neomycin resistance vector only (Neo) were treated (Lanes+) with 0.5 μg/ml Doxo or 10 μg/ml Bet A for 16 h. Mitochondria were isolated and incubated with cytosolic extracts for 6 h. in the presence or absence of 60 μm Z-VAD.fmk. Western blot analysis was performed as described in FIG. 14A.

SMILES	Δψm of isolated mitochondria [1]	nuclear DNA fragmentation, mitochondria plus nuclei plus drug [2]	effect of CD95 blockage by F(ab′)2 anti-APO-1 on drug-induced apoptosis [3]	caspase cleavage in cytosolic extracts by supernatants from treated mitochondria ([4]; 10 μg/ml betulinic acid or 5 mM atractyloside 0.5 h, extracts 6 h, FIG. 10A)	caspase cleavage in cytosolic extracts by treated isolated mitochondria ([4]; 10 μg/ml betulinic acid or 5 mM atractyloside, 6 h, FIG. 9A)	DNA fragmentation by supernatants from treated mitochondria ([2]; 10 μg/ml betulinic acid or 5 mM atractyloside 0.5 h, supernatant with nuclei 2 h, FIG. 10B)
COc1cc([C@@H]2c3cc4c(cc3[C@@H](O[C@@H]3O[C@@H]5CO[C@@H](C)O[C@H]5[C@H](O)[C@H]3O)[C@H]3COC(=O)[C@H]23)OCO4)cc(OC)c1O [VP-16, etoposide]	did not induce mitochondrial perturbations	No DNA fragmentation was observed	markedly reduced	–	–	–
C=C1[C@@H]2CC[C@H]3[C@]4(C)C[C@H](O[C@@H]5O[C@H](CO)[C@@H](OS(=O)(=O)O)[C@H](OS(=O)(=O)O)[C@H]5OC(=O)CC(C)C)C[C@@H](C(=O)O)[C@H]4CC[C@]3(C2)[C@H]1O [atractyloside]	–	had the same effect as betulinic acid	–	caspase activation and nuclear fragmentation were observed	led to activation of caspases	caspase activation and nuclear fragmentation were observed
N.N.[Cl][Pt][Cl] [cisplatinum]	did not induce mitochondrial perturbations	No DNA fragmentation was observed	markedly reduced	–	–	–
